# The source made the active and inactive calls. No cut-off for these calls is given here.
# Assays:
# B cell [1] = assay: Downregulation of Ig-G secretion in human B cells cocultured with human PBMC at 0.37 to 10 uM preincubated for 1 hr followed by anti-IgM and TCR stimulation and measured after 84 hrs by ELISA; assay type: functional, cell-based; conditions: dose microM 0.37-10, time 1.0 hrs
# B cell [2] = assay: Downregulation of IL-17F secretion in human B cells cocultured with human PBMC at 0.37 to 10 uM preincubated for 1 hr followed by anti-IgM and TCR stimulation and measured after 84 hrs by ELISA; assay type: functional, cell-based; conditions: dose microM 0.37-10, time 1.0 hrs
# Protein polybromo-1 = Protein polybromo-1 (Homo sapiens, UniProt Q86U86); assay: Binding affinity to human partial length PBRM1 bromodomain 5 (S645 to D766 residues) expressed in bacterial expression system by BROMOscan assay
# Sequence of Protein polybromo-1 (Q86U86 whole entry, the tested form may be a part): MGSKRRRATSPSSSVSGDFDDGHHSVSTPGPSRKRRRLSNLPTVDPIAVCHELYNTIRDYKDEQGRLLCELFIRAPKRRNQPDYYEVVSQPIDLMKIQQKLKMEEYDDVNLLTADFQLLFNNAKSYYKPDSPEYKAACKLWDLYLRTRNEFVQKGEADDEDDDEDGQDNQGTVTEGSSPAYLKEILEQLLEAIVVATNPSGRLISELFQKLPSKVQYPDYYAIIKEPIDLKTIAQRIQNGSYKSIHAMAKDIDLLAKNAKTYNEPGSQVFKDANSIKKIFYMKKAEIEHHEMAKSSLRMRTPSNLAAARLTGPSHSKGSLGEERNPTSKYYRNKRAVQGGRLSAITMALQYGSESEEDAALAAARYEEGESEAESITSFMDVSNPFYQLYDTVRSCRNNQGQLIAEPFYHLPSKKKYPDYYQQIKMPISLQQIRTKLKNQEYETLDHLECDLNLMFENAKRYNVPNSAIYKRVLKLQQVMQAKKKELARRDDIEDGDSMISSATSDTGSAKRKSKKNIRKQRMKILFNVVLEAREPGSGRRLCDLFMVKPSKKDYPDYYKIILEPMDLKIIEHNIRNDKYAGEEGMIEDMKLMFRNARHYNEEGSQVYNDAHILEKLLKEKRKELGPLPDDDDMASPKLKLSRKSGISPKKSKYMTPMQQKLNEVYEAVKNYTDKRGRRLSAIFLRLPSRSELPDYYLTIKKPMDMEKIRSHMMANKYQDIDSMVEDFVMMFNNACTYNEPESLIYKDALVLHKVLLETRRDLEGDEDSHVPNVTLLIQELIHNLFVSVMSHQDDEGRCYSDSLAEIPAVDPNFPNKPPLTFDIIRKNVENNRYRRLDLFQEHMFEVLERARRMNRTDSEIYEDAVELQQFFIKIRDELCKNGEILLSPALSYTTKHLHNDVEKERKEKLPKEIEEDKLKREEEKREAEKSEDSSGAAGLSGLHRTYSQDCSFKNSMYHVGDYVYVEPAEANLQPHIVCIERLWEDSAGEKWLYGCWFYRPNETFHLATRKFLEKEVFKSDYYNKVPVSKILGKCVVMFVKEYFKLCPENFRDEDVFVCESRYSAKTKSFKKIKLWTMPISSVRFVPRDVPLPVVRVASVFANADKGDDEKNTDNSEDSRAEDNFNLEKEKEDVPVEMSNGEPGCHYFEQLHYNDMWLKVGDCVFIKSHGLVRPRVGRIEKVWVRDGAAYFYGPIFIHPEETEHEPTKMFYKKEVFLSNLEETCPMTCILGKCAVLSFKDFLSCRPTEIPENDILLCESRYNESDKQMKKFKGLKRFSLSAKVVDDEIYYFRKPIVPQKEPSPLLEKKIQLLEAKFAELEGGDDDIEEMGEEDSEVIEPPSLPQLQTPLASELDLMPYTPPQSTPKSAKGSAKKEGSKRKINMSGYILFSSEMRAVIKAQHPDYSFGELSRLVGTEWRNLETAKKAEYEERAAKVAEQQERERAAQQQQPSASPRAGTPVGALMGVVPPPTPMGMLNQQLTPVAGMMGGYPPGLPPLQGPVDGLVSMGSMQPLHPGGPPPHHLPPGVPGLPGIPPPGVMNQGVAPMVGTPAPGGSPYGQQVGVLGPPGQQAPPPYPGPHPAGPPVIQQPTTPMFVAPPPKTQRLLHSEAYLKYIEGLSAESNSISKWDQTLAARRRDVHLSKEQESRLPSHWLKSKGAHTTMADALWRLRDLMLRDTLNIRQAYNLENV
# [3] = target: T1, Bromodomain-containing protein 3 (Homo sapiens, UniProt Q15059); assay: Binding affinity to human partial length BRD3 bromodomain 2 (G306 to P416 residues) expressed in bacterial expression system by BROMOscan assay
# T1 sequence (Q15059 whole entry, the tested form may be a part): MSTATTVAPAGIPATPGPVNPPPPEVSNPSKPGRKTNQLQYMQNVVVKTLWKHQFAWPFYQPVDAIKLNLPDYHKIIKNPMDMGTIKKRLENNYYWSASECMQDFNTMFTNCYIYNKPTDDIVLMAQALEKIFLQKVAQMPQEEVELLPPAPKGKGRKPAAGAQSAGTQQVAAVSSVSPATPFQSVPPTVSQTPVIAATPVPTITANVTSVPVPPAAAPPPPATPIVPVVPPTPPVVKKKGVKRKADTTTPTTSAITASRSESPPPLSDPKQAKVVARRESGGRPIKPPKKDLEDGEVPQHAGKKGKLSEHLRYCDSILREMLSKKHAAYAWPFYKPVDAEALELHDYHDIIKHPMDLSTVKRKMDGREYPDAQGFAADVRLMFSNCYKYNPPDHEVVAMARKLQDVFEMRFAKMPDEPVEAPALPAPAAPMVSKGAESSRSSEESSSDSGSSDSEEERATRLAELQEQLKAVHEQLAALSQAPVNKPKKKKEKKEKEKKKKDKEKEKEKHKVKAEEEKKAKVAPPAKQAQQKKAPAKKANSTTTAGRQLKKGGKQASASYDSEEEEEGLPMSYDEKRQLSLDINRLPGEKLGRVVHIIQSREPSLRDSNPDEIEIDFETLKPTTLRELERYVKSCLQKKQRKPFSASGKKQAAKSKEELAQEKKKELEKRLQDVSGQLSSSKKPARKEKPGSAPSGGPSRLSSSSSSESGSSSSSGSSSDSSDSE
# Blood [4] = assay: Inhibition of LPS-induced IL6 production in human whole blood preincubated for 30 mins followed by LPS addition and measured after overnight incubation by mesoscale assay; assay type: functional, tissue-based
# [5] = target: T1, Bromodomain-containing protein 3; assay: Binding affinity to full length BRD3 BD1 in human HuT78 cell lysates incubated for 45 mins by liquid chromatography-mass spectrometry based chemoproteomic binding assay; assay type: subcellular
# [6] = target: T2, Transcription initiation factor TFIID subunit 1 (Homo sapiens, UniProt P21675); assay: Displacement of AlexaFluor 488-labelled BD-AF488 from TAF1 BD2 (unknown origin) incubated for 15 mins by TR-FRET assay
# T2 sequence (P21675 whole entry): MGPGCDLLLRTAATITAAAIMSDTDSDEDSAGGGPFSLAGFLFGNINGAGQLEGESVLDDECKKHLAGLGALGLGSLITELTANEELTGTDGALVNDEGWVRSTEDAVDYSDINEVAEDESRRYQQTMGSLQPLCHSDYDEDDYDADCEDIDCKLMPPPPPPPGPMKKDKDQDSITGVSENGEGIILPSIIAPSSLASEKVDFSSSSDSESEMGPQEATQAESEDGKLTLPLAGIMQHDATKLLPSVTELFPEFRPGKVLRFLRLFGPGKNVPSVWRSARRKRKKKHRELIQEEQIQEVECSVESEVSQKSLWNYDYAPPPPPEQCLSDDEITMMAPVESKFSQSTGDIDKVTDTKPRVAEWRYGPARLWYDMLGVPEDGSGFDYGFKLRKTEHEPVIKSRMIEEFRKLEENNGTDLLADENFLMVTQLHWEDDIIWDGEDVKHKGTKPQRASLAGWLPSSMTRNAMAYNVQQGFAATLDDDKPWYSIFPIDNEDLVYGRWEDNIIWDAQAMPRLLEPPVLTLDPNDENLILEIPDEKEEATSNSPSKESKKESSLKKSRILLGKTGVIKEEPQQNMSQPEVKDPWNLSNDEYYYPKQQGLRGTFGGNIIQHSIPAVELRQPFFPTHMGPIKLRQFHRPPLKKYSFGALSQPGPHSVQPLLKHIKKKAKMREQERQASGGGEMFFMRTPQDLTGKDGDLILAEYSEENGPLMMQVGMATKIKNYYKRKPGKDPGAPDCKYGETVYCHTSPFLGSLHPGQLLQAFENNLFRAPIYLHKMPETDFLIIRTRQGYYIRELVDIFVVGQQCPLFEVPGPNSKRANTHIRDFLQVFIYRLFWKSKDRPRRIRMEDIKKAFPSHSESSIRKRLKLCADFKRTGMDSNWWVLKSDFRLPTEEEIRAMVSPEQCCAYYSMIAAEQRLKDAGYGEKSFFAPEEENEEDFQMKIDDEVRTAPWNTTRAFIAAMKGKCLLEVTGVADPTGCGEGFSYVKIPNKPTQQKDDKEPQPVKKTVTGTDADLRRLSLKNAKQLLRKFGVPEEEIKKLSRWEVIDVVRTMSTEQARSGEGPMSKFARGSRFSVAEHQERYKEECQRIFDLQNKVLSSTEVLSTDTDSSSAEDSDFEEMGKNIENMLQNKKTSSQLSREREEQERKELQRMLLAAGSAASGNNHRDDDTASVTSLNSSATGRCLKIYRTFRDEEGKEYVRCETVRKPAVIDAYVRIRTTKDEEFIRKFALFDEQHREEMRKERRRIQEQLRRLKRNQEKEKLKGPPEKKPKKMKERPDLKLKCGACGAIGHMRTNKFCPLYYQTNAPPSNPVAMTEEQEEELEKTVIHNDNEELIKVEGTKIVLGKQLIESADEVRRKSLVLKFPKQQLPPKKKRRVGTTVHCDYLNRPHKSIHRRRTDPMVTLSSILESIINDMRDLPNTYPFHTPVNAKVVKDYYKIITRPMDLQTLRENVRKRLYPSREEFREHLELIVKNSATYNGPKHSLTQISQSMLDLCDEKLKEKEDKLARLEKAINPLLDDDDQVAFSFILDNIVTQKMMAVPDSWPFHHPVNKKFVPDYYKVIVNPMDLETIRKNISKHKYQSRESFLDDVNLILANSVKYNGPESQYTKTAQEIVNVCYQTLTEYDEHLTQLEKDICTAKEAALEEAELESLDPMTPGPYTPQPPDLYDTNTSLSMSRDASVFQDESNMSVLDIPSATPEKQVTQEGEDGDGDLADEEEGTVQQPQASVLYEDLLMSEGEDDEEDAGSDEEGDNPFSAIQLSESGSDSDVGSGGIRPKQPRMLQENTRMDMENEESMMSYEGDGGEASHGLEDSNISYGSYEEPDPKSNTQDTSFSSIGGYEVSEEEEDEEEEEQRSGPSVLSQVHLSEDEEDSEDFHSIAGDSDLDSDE
# B cell [7] = assay: Downregulation of IL-2 secretion in human B cells cocultured with human PBMC at 0.37 to 10 uM preincubated for 1 hr followed by anti-IgM and TCR stimulation and measured after 84 hrs by ELISA; assay type: functional, cell-based; conditions: dose microM 0.37-10, time 1.0 hrs
# [8] = target: T3, Bromodomain testis-specific protein (Homo sapiens, UniProt Q58F21); assay: Binding affinity to full length BRDT BD2 in human HuT78 cell lysates incubated for 45 mins by liquid chromatography-mass spectrometry based chemoproteomic binding assay; assay type: subcellular
# [9] = target: T2, Transcription initiation factor TFIID subunit 1; assay: Binding affinity to full length TAF1 in human HuT78 cell lysates incubated for 45 mins by liquid chromatography-mass spectrometry based chemoproteomic binding assay; assay type: subcellular
# Blood [10] = assay: Inhibition of LPS-induced TNFalpha production in human whole blood preincubated for 30 mins followed by LPS addition and measured after overnight incubation by mesoscale assay; assay type: functional, tissue-based
# [11] = Intrinsic clearance in mouse hepatocytes at 0.5 uM by LC-MS/MS analysis; assay type: ADME, cell-based, Hepatocyte
# [12] = target: Bromodomain adjacent to zinc finger domain protein 2A (Homo sapiens, UniProt Q9UIF9); assay: Binding affinity to human partial length BAZ2A (M1792 to L1905 residues) expressed in bacterial expression system by BROMOscan assay
# B cell [13] = assay: Downregulation of IL-17A secretion in human B cells cocultured with human PBMC at 0.37 to 10 uM preincubated for 1 hr followed by anti-IgM and TCR stimulation and measured after 84 hrs by ELISA; assay type: functional, cell-based; conditions: dose microM 0.37-10, time 1.0 hrs
# [14] = Lipophilicity, logD of the compound at pH 7.4 by chromatographic method; assay type: physicochemical; conditions: buffer
# [15] = target: T4, ATPase family AAA domain-containing protein 2B (Homo sapiens, UniProt Q9ULI0); assay: Binding affinity to human partial length ATAD2B (Q955 to R1082 residues) expressed in bacterial expression system by BROMOscan assay
# T4 sequence (Q9ULI0 whole entry): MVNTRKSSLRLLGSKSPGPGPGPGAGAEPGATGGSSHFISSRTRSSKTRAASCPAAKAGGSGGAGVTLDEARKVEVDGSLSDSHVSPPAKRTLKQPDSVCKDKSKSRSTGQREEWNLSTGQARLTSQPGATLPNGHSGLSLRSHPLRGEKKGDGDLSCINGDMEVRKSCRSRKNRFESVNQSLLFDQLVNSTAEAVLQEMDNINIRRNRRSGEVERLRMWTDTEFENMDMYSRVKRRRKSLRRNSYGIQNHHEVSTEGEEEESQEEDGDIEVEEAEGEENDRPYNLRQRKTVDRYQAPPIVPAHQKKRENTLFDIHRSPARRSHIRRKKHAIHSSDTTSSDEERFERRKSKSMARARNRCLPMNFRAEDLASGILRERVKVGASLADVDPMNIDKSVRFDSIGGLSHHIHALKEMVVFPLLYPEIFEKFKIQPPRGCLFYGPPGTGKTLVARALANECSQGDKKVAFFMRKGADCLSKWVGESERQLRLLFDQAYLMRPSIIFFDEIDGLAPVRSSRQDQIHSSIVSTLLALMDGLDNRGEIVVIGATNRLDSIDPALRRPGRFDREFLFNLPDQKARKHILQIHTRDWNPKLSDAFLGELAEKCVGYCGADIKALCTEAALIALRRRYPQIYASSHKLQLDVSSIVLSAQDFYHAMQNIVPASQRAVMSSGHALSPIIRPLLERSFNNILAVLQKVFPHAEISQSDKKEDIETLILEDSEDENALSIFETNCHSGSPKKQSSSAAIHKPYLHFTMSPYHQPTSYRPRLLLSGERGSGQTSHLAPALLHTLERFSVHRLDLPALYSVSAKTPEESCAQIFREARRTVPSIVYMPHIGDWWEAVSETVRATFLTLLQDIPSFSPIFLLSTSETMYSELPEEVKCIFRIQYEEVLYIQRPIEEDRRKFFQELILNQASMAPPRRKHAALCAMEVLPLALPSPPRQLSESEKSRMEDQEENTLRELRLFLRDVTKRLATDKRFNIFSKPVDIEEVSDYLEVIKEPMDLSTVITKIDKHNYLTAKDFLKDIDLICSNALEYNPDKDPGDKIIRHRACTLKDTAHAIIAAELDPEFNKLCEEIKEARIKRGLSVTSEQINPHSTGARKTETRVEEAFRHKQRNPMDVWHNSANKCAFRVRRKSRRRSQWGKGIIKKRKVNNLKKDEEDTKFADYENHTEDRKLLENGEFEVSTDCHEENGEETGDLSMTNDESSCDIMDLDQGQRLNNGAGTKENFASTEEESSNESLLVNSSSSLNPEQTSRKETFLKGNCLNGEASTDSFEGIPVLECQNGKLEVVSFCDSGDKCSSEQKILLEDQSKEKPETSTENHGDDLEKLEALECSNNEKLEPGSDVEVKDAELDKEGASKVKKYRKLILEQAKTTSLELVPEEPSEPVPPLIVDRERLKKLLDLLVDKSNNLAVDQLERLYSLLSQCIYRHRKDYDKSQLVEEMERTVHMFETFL
# [16] = target: T2, Transcription initiation factor TFIID subunit 1; assay: Binding affinity to human partial length TAF1 bromodomain 2 (D1521 to D1656 residues) expressed in bacterial expression system by BROMOscan assay
# [17] = target: T3, Bromodomain testis-specific protein; assay: Binding affinity to full length BRDT BD1 in human HuT78 cell lysates incubated for 45 mins by liquid chromatography-mass spectrometry based chemoproteomic binding assay; assay type: subcellular
# Blood [18] = assay: Inhibition of LPS-induced MCP1 production in human whole blood preincubated for 30 mins followed by LPS addition and measured after overnight incubation by mesoscale assay; assay type: functional, tissue-based
# [19] = target: Bromodomain-containing protein 2 (Homo sapiens, UniProt P25440); assay: Binding affinity to human partial length BRD2 bromodomain 1 long isoform (K71 to N194 residues) expressed in bacterial expression system by BROMOscan assay
# Sequence of Bromodomain-containing protein 2 (P25440 whole entry, the tested form may be a part, canonical isoform): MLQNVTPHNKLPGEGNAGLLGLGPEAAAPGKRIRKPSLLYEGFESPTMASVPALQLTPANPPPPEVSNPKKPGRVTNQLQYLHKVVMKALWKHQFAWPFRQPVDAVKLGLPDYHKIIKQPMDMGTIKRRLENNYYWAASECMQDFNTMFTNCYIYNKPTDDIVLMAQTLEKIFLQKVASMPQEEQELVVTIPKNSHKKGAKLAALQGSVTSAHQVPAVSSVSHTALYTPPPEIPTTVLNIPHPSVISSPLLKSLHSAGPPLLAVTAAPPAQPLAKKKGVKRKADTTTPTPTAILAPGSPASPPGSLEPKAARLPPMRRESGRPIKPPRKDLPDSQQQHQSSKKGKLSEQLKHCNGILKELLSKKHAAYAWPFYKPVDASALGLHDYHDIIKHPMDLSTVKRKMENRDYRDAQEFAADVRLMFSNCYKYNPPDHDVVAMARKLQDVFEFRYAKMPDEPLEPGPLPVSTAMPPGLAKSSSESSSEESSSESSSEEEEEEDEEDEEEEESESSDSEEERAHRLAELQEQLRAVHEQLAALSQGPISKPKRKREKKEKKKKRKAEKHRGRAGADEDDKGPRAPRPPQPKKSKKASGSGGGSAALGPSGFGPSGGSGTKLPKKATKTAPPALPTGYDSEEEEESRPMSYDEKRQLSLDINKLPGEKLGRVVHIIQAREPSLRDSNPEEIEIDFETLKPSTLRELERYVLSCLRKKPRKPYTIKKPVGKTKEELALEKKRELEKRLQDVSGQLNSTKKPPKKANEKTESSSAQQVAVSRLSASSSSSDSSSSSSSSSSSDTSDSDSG
smiles,measurement,setting,value
Cc1cc2c(-c3ccco3)cnc(N[C@@H]3CCN(C)C[C@H]3C(=O)NC3CCCCC3)c2[nH]c1=O [GSK789],Activity,B cell [1],Active
same,Activity,B cell [2],Active
same,Kd,Protein polybromo-1,10 µM
same,Kd,[3],20 µM
same,IC50,Blood [4],3.55 µM
same,Kd,[5],0.00398 µM
same,IC50,[6],10 µM
same,Activity,B cell [7],Active
same,Kd,[8],> 31.6 µM
same,IC50,[9],> 10 µM
same,IC50,Blood [10],0.87 µM
same,CLH,[11],8.15 mL/min/g
same,Kd,[12],15.8 µM
same,Activity,B cell [13],Active
same,chromatographic logD,[14],3.99
same,Kd,[15],15.8 µM
same,Kd,[16],0.0501 µM
same,Kd,[17],0.01 µM
same,IC50,Blood [18],0.67 µM
same,Kd,[19],0.02 µM

# From ChEMBL document CHEMBL4725292 (J Med Chem, 2020)
